Tests used:
[1] = tested on: mice; experiment: mouse tail suspension test (TST); type: in vivo; details: i.p., peptide 90 min, desipramine and fluoxetine (20 mg/kg) 30 min prior to test, 5 min trial
Method: (§1) In these tests experimental animals are exposed to inescapable aversive situations (hanging by the tail, being into the water) and in response show alternate periods of agitation and immobility reflecting “attempts to escape” and ‘behavioural resignation” respectively.
(§2) The details of the experimental protocols used are as follows: mice were injected i.p. with vehicle, different doses of the peptide TAT-DEF-Elk-1, of a scrambled peptide (serving as control), of the MEK inhibitor SL327, or with the reference antidepressants fluoxetine (20 mg/kg) or desipramine (20 mg/kg), at appropriate time points before the test trial.
(§3) In the TST, each mouse was tested in an individual cubicle while suspended from a tail hanger with adhesive tape wrapped around its tail (1.5-2 cm from tip) 80 cm above the floor. The trial was conducted for 5 min, during which the duration of immobility was measured automatically (BIOSEB, France). For the FST, mice were placed in clear plastic cylinders (diameter 10 cm; height 25 cm) filled with water at 6 cm height (22-25° C.) for 6 min. A blinded observer scored the duration of immobility manually during the last 4 min of the 6-min test.

[2] = tested on: mice; experiment: mouse forced swimming test (FST); type: in vivo; details: i.p., peptide 90 min, desipramine (20 mg/kg) 30 min prior to test, last 4 min of 6-min test
Method: as §1, §2, §3

[3] = tested on: mice; experiment: social defeat stress (SDS) test; type: in vivo, mouse; details: peptide 1 mg/kg; for SDS-induced social avoidance (time spend interacting, TSI): defeated mice, treated 15 or 21 days
From the text: (A) Data represent means+/−SE of time spend interacting (TSI) with the cage, in the absence (non-hatched bars) or presence (hatched bars) of the target. When target is present, control mice engage in active social behaviour, seen as an increase of TSI (panel a), while vehicle-treated defeated mice (panel b; white bars) show lower TSI, indicating social avoidance.
In the social defeat stress test (SDS), mice were exposed repeatedly (2 week) to aggressive mice; controls were gently handled. Subsequently, the aggressors were removed. Mice were treated with vehicle or TAT-DEF-Elk1 (1 mg/kg) for 15 or 21 days, and then tested for SDS-induced social avoidance. The test box contained a perforated plastic cage that was empty for the first test session and that held a neutral mouse (target) for the second test session.

[4] = tested on: mice; experiment: unpredictable chronic mild stress paradigm (UCMS); type: in vivo, mouse; details: for UCMS-induced immobility in the TST / sucrose preference (% of sugar of total consumption): end of 3-week UCMS, peptide 1 mg/kg or fluoxetine 20 mg/kg once daily
From the text: We have also assessed the effects of the TAT-DEF-Elk1 peptide in the unpredictable chronic mild stress paradigm ([…] is used as a pertinent model of depression with aetiological validity. In UCMS protocols animals are subjected for a long period to different non-anticipated stressors. Chronic exposure to stress results to a syndrome in mice that reproduces symptoms of depression, including increased resignation, anxiety-like behavior, decreased consumption of palatable food, and physiological changes. Chronic administration of compounds with antidepressant activity reverses these changes. The protocol that we have used consists of three weeks of UCMS, during which mice were subjected to various stressors according to a 'random' schedule. Body weight and coat state were assessed weekly, as markers of the progression of the UCMS-evoked syndrome. At the end of the 3 week period the emotional state of the mice was tested in behavioral tests of emotionality and of depression-like behaviors (FIG. 3A). Experimental groups of mice were as follows: (i) non-stressed mice: these were group housed and were handled and maintained under standard laboratory conditions (Group 1; FIG. 3B), (ii) stressed mice: these were maintained under standard laboratory conditions but were isolated in small individual cages. During the three week protocol they were exposed to three mild stressors per day. Stressed-mice were treated either with vehicle (Group 2; FIG. 3B), with the peptide (1 mg/kg; once daily), or with the reference antidepressant fluoxetine (20 mg/kg; once daily) (Group 3; FIG. 3B). Treatment with vehicle or compounds started at the beginning of the UCMS and lasted throughout the three week period. At the end of the UCMS paradigm, mice were tested for depressive-like responses, such as passivity and resignation measured as increased immobility in the tail suspension test and anhedonia measured as the preference to sucrose.

[5] = tested on: Elk1; experiment: tail suspension-induced Elk1 phosphorylation in medial prefrontal cortex (immunochemistry); type: in vivo, mouse; details: 2 mg/kg, 1 h30 before 10 min TST; perfused 20 min after start
Method: (§4) In the first experiment, TAT-DEF-Elk-1 peptide (2 mg/kg) or vehicle were administrated 1 h30 before a 10 min tail suspension trial (TST). Mice were perfused 20 min after starting the TST test and phosphorylation of ERK and Elk1 was assessed with immunochemistry.

[6] = tested on: ERK; experiment: tail suspension-induced ERK phosphorylation (immunochemistry); type: in vivo, mouse; details: 2 mg/kg, 1 h30 before 10 min TST; perfused 20 min after start
Method: as §4

[7] = tested on: plasma corticosterone; experiment: plasma corticosterone after 30 min restraint stress (RIA); type: in vivo, C57BL/6J mice
Method: Data represent means+/−SE of plasma corticosterone in banal conditions (non-stressed, light grey bars) and immediately after a 30-min restraint stress (dark grey bars); vehicle or the TAT-DEF-Elk1 peptide were administered […] before the beginning of stress; *p<0.05 as compared to non-stressed; #p<0.05 as compared to vehicle-treated.
In the second experiment C57BL/6J mice (10 weeks old) were injected with TAT-DEF-Elk1 peptide or vehicle; 1 h30 after the injection the mice were subjected to a 30 min restraint stress i.e. mice were confined individually in a 50 ml Falcon tube in which a hole was made at the top for the mice to breathe. Mice were decapitated directly after restraint, blood was collected in 2 ml eppendorfs containing EDTA at 4° C. Samples were centrifuged for 15 min at 760 g, plasma was collected and corticosterone assessed using the Corticosterone Double Antibody 125-I RIA kit (MP BIOMEDICAL).

[8] = tested on: mice; details: described in the literature; cited from earlier work
[9] = stressed mice, peptide 1 mg/kg once daily for three weeks

Row | Compound | immobility in the TST [1] | immobility in the FST [2] | SDS-induced social avoidance (time spend interacting, TSI) [3] | UCMS-induced immobility in the TST [4] | sucrose preference (% of sugar of total consumption) [4] | UCMS-induced body weight loss [4, 9] | UCMS-induced degradation of the coat state [4, 9] | duration of administration after which active in the SDS test [3] | tail suspension-induced Elk1 phosphorylation in mPFCx [5] | tail suspension-induced ERK phosphorylation [6] | stress induced elevation of plasma corticosterone ([7]; immediately after 30-min restraint stress, injected 1 h30 before) | basal plasma level corticosterone ([7]; non-stressed mice) | duration of administration after which antidepressant action in the SDS test [8]
1 | CNCCCN1c2ccccc2CCc2ccccc21 [desipramine, reference compound] | of similar magnitude of that of fluoxetine and desipramine | antidepressant-like effects similar to the classical antidepressant desipramine | did not have any effect |  |  |  |  |  |  |  |  |  | 
2 | GRKKRRQRRRPPSPAKLSFQFPSSGSAQVHI (selective peptide inhibitor of Elk-1 activation - TAT-DEF-Elk-1) [TAT-DEF-Elk-1 peptide] | reduced immobility in the TST similar to classical antidepressants | induced antidepressant-like effects in the FST | fully reverses this behaviour | reduced UPMS-induced immobility in the TST | fully restored UCMS-blunted sucrose preference | reversed the progressive weight loss induced by UCMS | diminished the degradation of the coat state | 15 days | reduces selectively tail suspension-induced Elk1 phosphorylation | does not inhibit tail suspension-induced ERK phosphorylation | markedly reduces stress induced-elevations in plasma level corticosterone | does not affect basal plasma level corticosterone | 
3 | CNCCC(Oc1ccc(C(F)(F)F)cc1)c1ccccc1 (stereo not shown) [fluoxetine, reference compound] | of similar magnitude of that of fluoxetine and desipramine |  |  | similarly to the reference antidepressant fluoxetine | similarly to the reference antidepressant fluoxetine |  |  |  |  |  |  |  | 
4 | CN(C)CCCN1c2ccccc2CCc2ccccc21 [imipramine] |  |  |  |  |  |  |  |  |  |  |  |  | 39 days
